This is an account of results in US20030003519A1, “Compositions and methods for the discovery and selection of biological information” (priority 2000, published 2003).

SMILES strings stand for the structures. Like-named read-outs stand apart in the source and are kept apart here.

For the test, the system named is effect of IL-1β on SEAP reporter gene activity in selected NIH3T3 cells. As to the kind of experiment: IL-1β-induced SEAP reporter gene activity in selected NIH3T3 cell clones. The class given is cell-based. The following applies: IL-1β-stimulated selected NIH3T3 cells, read-out: IC50 value of the inhibition of SEAP activity.

Regarding `Cc1ccc(-c2cc(C(F)(F)F)nn2-c2ccc(S(N)(=O)=O)cc2)cc1` [celecoxib], under “Mus musculus”, the IC50 was ~0.2 µM.
For the compound `COc1cccc(-c2cc(=O)c3ccccc3o2)c1N` [PD98059], the IC50 is ~1 µM.
With `N#CC(=C(/N)Sc1ccccc1N)/C(C#N)=C(\N)Sc1ccccc1N` [U0126], the IC50 (Mus musculus) is ~1 µM.
